{
  "source": "patent US7141546B1",
  "about": "“CRFR2 selective ligands” (priority 2001, dated 2006)",
  "key": {"[1]": {"molecular_target": "T1, CRFR1 (Homo sapiens, UniProt P34998)", "T1 construct": "expressed in transfected cells", "T1 sequence (P34998 24-415)": "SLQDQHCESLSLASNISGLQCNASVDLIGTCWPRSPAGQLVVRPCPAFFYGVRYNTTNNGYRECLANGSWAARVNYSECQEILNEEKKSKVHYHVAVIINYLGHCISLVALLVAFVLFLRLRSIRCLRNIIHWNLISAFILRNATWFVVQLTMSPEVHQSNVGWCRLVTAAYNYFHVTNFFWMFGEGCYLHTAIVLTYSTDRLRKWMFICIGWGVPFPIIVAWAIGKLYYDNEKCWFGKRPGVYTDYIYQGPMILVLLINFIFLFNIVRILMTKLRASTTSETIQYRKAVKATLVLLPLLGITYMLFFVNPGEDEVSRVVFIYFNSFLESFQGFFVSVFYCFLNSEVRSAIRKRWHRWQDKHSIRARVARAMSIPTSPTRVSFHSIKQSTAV", "assay": "cAMP accumulation in CHO cells stably transfected with CRFR1 and treated with CRF", "assay_type": "cell-based", "source_text": "(§1) In addition to inhibiting CRF receptor binding, a candidate's CRF receptor antagonist activity may be established by the ability of the compound to antagonize an activity associated with CRF. For example, CRF is known to stimulate various biochemical processes, including adenylate cyclase activity. Therefore, compounds may be evaluated as CRF antagonists by their ability to antagonize CRF-stimulated adenylate cyclase activity by, for example, measuring cAMP levels. The inhibition of CRF-stimulated adenylate cyclase activity, determined by the assay described by G. Battaglia et al., Synapse 1:572 (1987), provides an assay for determining a compound's ability to antagonize CRF activity. Accordingly, CRF receptor antagonist activity may be determined by assay techniques which generally include an initial binding assay followed by such a cAMP screening protocol.\n(§2) Binding assays with cells expressing human CRFR1 are carried out as described in the Chen et al. P.N.A.S., supra. The affinities of test peptides for CRFR1 and CRFR2b stably expressed in CHO cells were determined by competitive displacement of ^125I-(Nle^21, Tyr^32) ovine CRF (for CRFR1) or of [^125I-Tyr^o-]Ucn (for CRFR2b) as described."}, "[2]": {"molecular_target": "T2, CRFR2 (Homo sapiens, UniProt Q13324)", "T2 construct": "expressed in transfected cells", "T2 sequence (Q13324 1-438 isoform Q13324-2)": "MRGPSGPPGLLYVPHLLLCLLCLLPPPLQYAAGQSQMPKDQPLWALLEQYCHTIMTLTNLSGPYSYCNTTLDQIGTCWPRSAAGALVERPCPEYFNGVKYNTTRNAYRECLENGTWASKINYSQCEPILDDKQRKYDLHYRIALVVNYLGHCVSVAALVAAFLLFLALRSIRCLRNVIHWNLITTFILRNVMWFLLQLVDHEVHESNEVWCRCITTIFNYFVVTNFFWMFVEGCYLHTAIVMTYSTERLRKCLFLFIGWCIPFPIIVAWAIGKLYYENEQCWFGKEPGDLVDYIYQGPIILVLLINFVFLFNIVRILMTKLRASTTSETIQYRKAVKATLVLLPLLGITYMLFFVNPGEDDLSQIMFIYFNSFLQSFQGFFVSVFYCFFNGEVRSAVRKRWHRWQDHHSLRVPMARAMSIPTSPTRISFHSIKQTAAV", "assay": "cAMP accumulation in CHO cells stably transfected with CRFR2 and treated with CRF", "assay_type": "cell-based", "conditions": "CHO cells stably transfected with CRFR2, treated with CRF", "source_text": "as §1, with “protocol. […]” for “protocol.”"}, "[3]": {"molecular_target": "T1, CRFR1", "assay": "Competitive displacement binding assay, cloned hCRFR1 expressed in CHO cells", "source_text": "A candidate CRFR2 ligand is also easily evaluated in a binding assay using known CRF receptors, such as that described in Perrin, M., et al., Endocrinology, 118, 1171–1179 (1986). CRF receptors and the details of binding assays are discussed later in this specification. […] One such representative binding assay utilizing CRF-R1 receptor is described in Chen, et al., P.N.A.S., 90, 8967–8971 (October 1993).\n(§3) CRF receptors have now been cloned and are disclosed in the aforementioned Chen et al. article, in Perrin, M., et al., P.N.A.S, 92, 2969–2973 (March 1995), and in Lovenberg, T., et al., P.N.A.S., 92, 836–840 (January 1995). Binding affinity is a term used to refer to the strength of interaction between ligand and receptor. […] Ki (inhibitory binding affinity constant) is determined using a “standard” or “tracer” radioactive ligand and thus measures the displacement of the tracer from the receptor or binding protein; it is most properly expressed with reference to such tracer. However, so long as these assays are carefully performed under specific conditions with relatively low concentrations of receptor or the like, the calculated Ki will be substantially the same as its dissociation constant KD. […] It is particularly efficient to test for Ki because only a single tracer need be labelled, e.g. radioiodinated. […] Those reported hereinafter are derived using radioactively labeled [Tyr Glu^1, Nle^17]-Svg as a radioligand.\nas §2"}, "[4]": {"test_system": "CRF receptors", "assay": "Intrinsic CRF activity of the antagonist", "conditions": "when administered at the highest dosage"}, "[5]": {"molecular_target": "T3, human CRFR2b (Homo sapiens, UniProt Q13324)", "T3 construct": "expressed in transfected cells", "T3 sequence (Q13324 1-438 isoform Q13324-2)": "T2 sequence (Q13324 1-438 isoform Q13324-2)", "assay": "Competitive displacement binding assay, stably transfected CHO cells expressing human CRFR2b", "experimental": "as §3, §2"}},
  "data": [
    {"molecule": "CCCC[C@H](NC(=O)[C@H](CCCCN)NC(=O)[C@H](CCCNC(=N)N)NC(=O)[C@H](CC(C)C)NC(=O)[C@](C)(CC(C)C)NC(=O)[C@H](Cc1c[nH]cn1)NC(=O)[C@@H](Cc1ccccc1)NC(C)=O)C(=O)N[C@H](C(=O)N[C@@H](CCC(=O)O)C(=O)N[C@H](C(=O)N[C@@H](CCC(=O)O)C(=O)N[C@@H](CCCCN)C(=O)N[C@@H](CCC(N)=O)C(=O)N[C@@H](CCC(=O)O)C(=O)N[C@@H](CCCCN)C(=O)N[C@@H](CCC(=O)O)C(=O)N[C@@H](CCCCN)C(=O)N[C@@H](CCC(N)=O)C(=O)N[C@@H](CCC(N)=O)C(=O)N[C@@H](C)C(=O)N[C@H]1CCC(=O)NCCCC[C@@H](C(=O)N[C@@H](CC(C)C)C(=O)N[C@@H](CC(C)C)C(=O)N[C@@H](CC(C)C)C(=O)N[C@@H](CC(=O)O)C(=O)N[C@@](C)(CC(C)C)C(=O)N[C@H](C(N)=O)[C@@H](C)CC)NC(=O)[C@H](CC(N)=O)NC(=O)[C@H](CC(N)=O)NC1=O)[C@@H](C)CC)[C@@H](C)CC", "note": "[Example 1 cyclic peptide, (cyclo 31–34)[Ac-D-Phe^11, His^12, CML ^13,39, Nle^17, Glu^31, Lys^34]-sauvagine(11–40)]", "values": [
      {"measurement": "antagonism of CRF activity with respect to CRFR1 (cAMP accumulation)", "setting": "[1]", "value": "little or no effect"},
      {"measurement": "antagonism of CRF activity with respect to CRFR2 (cAMP accumulation)", "setting": "[2]", "value": "effectively antagonize CRF activity"},
      {"measurement": "IC50", "setting": "[3]", "value": "> 500", "unit": "nM"},
      {"measurement": "Ki", "setting": "[3]", "value": "~1000", "unit": "nM"},
      {"measurement": "intrinsic CRF activity", "setting": "[4]", "value": "only minor intrinsic CRF activity"},
      {"measurement": "Ki", "setting": "[5]", "value": 1.1, "unit": "nM"}
    ]}
  ]
}
